Reference: patent US20050130989A1, “N-arylheteroaromatic products compositions containing them and use thereof” (Aventis Pharma S. A., priority 2003, published 2005)
Where a name gives a salt, the structure may show the parent alone.

Key:
[1] = target: T1, tubulin (Sus scrofa, UniProt P02550+P02554); test: Evaluation of the inhibition of tubulin polymerization (turbidimetry); assay type: biochemical, pig; settings: tubulin 10 μm (1 mg/ml), 37° C., turbidity at 350 nm; concentration that inhibits the rate of polymerization by 50%; read-out: Inhibition of tubulin polymerization IC 50 (μm)
T1 construct: Tubulin is purified from pig brain according to published methods; from tissue; host or cells: pig brain
T1 sequence (P02550 whole entry): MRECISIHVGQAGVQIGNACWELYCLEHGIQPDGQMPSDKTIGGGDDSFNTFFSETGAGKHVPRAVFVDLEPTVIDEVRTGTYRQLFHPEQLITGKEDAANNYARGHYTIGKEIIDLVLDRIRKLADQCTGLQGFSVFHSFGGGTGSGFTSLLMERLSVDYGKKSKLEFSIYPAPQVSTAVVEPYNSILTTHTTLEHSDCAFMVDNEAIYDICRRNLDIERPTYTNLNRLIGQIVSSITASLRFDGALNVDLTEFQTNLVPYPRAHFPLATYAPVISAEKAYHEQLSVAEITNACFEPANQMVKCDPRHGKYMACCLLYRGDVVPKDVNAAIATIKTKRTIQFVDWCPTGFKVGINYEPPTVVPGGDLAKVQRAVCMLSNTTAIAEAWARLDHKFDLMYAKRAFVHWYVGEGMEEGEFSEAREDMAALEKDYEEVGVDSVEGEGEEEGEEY
T1 sequence (P02554 whole entry): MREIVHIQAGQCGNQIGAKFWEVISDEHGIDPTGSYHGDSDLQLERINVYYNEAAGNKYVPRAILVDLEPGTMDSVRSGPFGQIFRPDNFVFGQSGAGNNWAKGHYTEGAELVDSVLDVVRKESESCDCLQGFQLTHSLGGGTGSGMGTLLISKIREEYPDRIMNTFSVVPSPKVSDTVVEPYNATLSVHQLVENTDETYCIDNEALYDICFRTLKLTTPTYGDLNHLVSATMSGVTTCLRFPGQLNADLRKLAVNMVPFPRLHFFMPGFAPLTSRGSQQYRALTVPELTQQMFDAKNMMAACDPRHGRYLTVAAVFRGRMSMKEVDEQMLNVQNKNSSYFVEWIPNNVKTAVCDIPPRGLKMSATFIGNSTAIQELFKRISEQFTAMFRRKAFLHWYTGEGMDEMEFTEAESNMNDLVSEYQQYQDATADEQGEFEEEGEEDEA
Outline: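 Pig brain tubulin (>95% pure), 10 μm in MES pH 6.8/30% glycerol buffer plus 1 mM GTP and 6 mM MgCl2, with compound at 0.5–10 μm added before polymerization. Polymerization triggered by shift from 6° C to 37° C, followed by turbidity at 350 nm; IC50 is 50% inhibition of polymerization rate.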

[2] = test system: HCT116 cells; test: Inhibition of proliferation of the human colon tumor line HCT116 ([14C]-thymidine incorporation); assay type: cell-based; settings: Homo sapiens, HCT-116, 48 h, 48 hours at 37° C., read-out: Inhibition of HCT116 proliferation IC 50 (μm)
Outline: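 HCT116 cells (5000/well) in DMEM with 10% fetal calf serum incubated 48 h at 37° C with [14C]-thymidine (0.1 μCi/well) and compound up to 10 μm (DMSO ≤0.5%). Incorporated radioactivity counted; IC50 is concentration cutting radioactivity by 50% versus untreated control.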

Structure (SMILES) | IC50 [1] [nM] | IC50 [2] [nM]
COc1cccc(N2CCN(C(=O)c3cc(C)nn3-c3ccccc3F)CC2)c1 [3/15] | 2000 | 4
COc1cc(OC)cc(N2CCN(C(=O)c3cc(N4CCOCC4)nn3-c3ccccc3)CC2)c1 [Example E96, [4-(3,5-Dimethoxyphenyl)piperazin-1-yl][5-(morpholin-4-yl)-2-phenyl-2H-pyrazol-3-yl]methanone] | 11400 | 73.3
COc1cc(OC)cc(N2CCN(C(=O)c3cc(-c4ccc[nH]4)nn3-c3ccccc3)CC2)c1 [Example E91, [4-(3,5-Dimethoxyphenyl)piperazin-1-yl][2-phenyl-5-(1H-pyrrol-2-yl)-2H-pyrazol-3-yl]methanone] | 1000 | 10.5
Cc1cc(C(=S)N2CCN(c3cccc(Cl)c3)CC2)n(-c2ccccc2)n1 [Example E7, [4-(3-Chlorophenyl)piperazin-1-yl](5-methyl-2-phenyl-2H-pyrazol-3-yl)-methanethione] | 1400 | 11
CSc1ccccc1N1CCN(C(=O)c2cc(C)nn2-c2cccc(F)c2)CC1 [3/97] | 3000 | 83
Cc1cccc(-n2nc(C)cc2C(=O)N2CCN(c3ccc(F)cc3)CC2)c1 [3/47] | 8000 | 312
COc1cccc(N2CCN(C(=O)c3cc(C)nn3-c3cccc(C)c3)CC2)c1 [3/49] | 1000 | 7.9
Cc1cc(C(=O)N2CCN(c3cccc(C(C)O)c3)CC2)n(-c2ccccc2)n1 (stereo not drawn) [Example E39, {4-[3-(1-Hydroxyethyl)phenyl]piperazin-1-yl}(5-methyl-2-phenyl-2H-pyrazol-3-yl)methanone hydrochloride] | 2500 | 71.9
Cc1cc(C(=O)N2CCN(c3cccc(S(C)(=O)=O)c3)CC2)n(-c2ccccc2)n1 [Example E26, [4-(3-Methanesulfonylphenyl)piperazin-1-yl](5-methyl-2-phenyl-2H-pyrazol-3-yl)methanone] | 6400 | 135
COc1ccc(Cl)cc1N1CCN(C(=O)c2cc(C)nn2-c2cccc(F)c2)CC1 [3/22] | 1500 | 46
Cc1cccc(-n2nc(C)cc2C(=O)N2CCN(c3cc(Cl)ccc3C)CC2)c1 [3/53] | 1200 | 52
COc1cc(OC)cc(N2CCN(C(=O)c3cc(N)nn3-c3ccccc3)CC2)c1 [Example E99, (5-Amino-2-phenyl-2H-pyrazol-3-yl)[4-(3,5-dimethoxyphenyl)piperazin-1-yl]methanone] | 1000 | 2.4
Cc1cccc(-n2nc(C)cc2C(=O)N2CCN(c3ccc(C)c(C)c3)CC2)c1 [3/30] | 2900 | 729
Cc1cc(C(=O)N2CCN(c3cccc(C(F)(F)F)c3)CC2)n(-c2ccc(F)cc2)n1 [3/23] | 3000 | 434
Cc1cccc(-n2nc(C)cc2C(=O)N2CCN(c3cccc(Cl)c3)CC2)c1 [3/31] | 1300 | 140
COc1cc(OC)cc(N2CCN(C(=O)c3cc(CO)nn3-c3ccccc3)CC2)c1 [Example E73, [4-(3,5-Dimethoxyphenyl)piperazin-1-yl](3-hydroxymethyl-1-phenyl-1H-pyrazol-5-yl)methanone] | 990 | 6.9
Cc1cc(C(=O)N2CCN(c3cccc(Cl)c3Cl)CC2)n(-c2ccc(Cl)cc2)n1 [3/129] | < 25000 | 2560
COc1cc(OC)cc(N2CCN(C(=O)c3cc(-c4ccc(F)cc4)nn3-c3ccccc3)CC2)c1 [Example E88, [4-(3,5-Dimethoxyphenyl)piperazin-1-yl][5-(4-fluorophenyl)-2-phenyl-2H-pyrazol-3-yl]methanone] | 4530 | 1260
Cc1cc(C(=O)N2CCN(c3cccc(C(F)(F)F)c3)CC2)n(-c2cccc(Cl)c2)n1 [3/121] | 3300 | 51
Cc1cc(C(=O)N2CCN(c3cccc(C)c3C)CC2)n(-c2ccccc2)n1 [3/9] | 7000 | 494
COc1cccc(-n2nc(C)cc2C(=O)N2CCN(c3cccc(C)c3)CC2)c1 [3/3] | 1800 | 87
CCOc1ccccc1N1CCN(C(=O)c2cc(C)nn2-c2cccc(Cl)c2)CC1 [3/71] | 2500 | 220
COc1ccc(-n2nc(C)cc2C(=O)N2CCN(c3cccc(OC)c3)CC2)cc1 [3/105] | 4500 | 118
Cc1cc(C(=O)N2CCN(c3cccc(Cl)c3)CC2)n(-c2ccccc2F)n1 [3/37] | 20000 | 1440

Structure (SMILES) | IC50 [1] [nM] | IC50 [2] [nM]
COc1cccc(N2CCN(C(=O)c3cc(C)nn3-c3ccc(Cl)cc3)CC2)c1 [3/73] | 2500 | 111
COc1cccc(N2CCN(C(=O)c3cc(C)nn3-c3ccccc3)CC2)c1 [3/10] | 2000 | 25
COc1cc(OC)cc(N2CCN(C(=O)c3ccnn3-c3ccccc3)CC2)c1 [Example E92, [4-(3,5-Dimethoxyphenyl)piperazin-1-yl](2-phenyl-2H-pyrazol-3-yl)methanone] | 1160 | 1
Cc1cc(C(=O)N2CCN(c3cncc(Cl)c3)CC2)n(-c2ccccc2)n1 [Example E33, [4-(5-Chloro-3-pyridyl)piperazin-1-yl](5-methyl-2-phenyl-2H-pyrazol-3-yl)methanone] | 900 | 8.9
Cc1cccc(-n2nc(C)cc2C(=O)N2CCN(c3ccc4c(c3)OCCO4)CC2)c1 [3/56] | 5000 | 139
Cc1nccn1Cc1cc(C(=O)N2CCN(c3cccc(Cl)c3)CC2)n(-c2ccccc2)n1 [Example E75, [4-(3-Chlorophenyl)piperazin-1-yl][5-(2-methylimidazol-1-ylmethyl)-2-phenyl-2H-pyrazol-3-yl]methanone] | 5100 | 61.2
Cc1cc(C(=O)N2CCN(c3cc(Cl)c(Br)cc3Br)CC2)n(-c2ccccc2)n1 [Example E79, [4-(2,4-Dibromo-5-chlorophenyl)piperazin-1-yl](5-methyl-2-phenyl-2H-pyrazol-3-yl)methanone] | 2200 | 1040
CNCCNC(=O)c1cccc(N2CCN(C(=O)c3cc(C)nn3-c3ccccc3)CC2)c1 [Example E110, N-(2-Methylaminoethyl)-3-[4-(5-methyl-2-phenyl-2H-pyrazole-3-carbonyl)piperazin-1-yl]benzamide] | 12000 | 1170
COc1cc(OC)cc(N2CCN(C(=O)c3cc(NCc4ccccc4)nn3-c3ccccc3)CC2)c1 [Example E98, (5-Benzylamino-2-phenyl-2H-pyrazol-3-yl)[4-(3,5-dimethoxyphenyl)piperazin-1-yl]methanone] | 1400 | 223
Cc1ccc(-n2nc(C)cc2C(=O)N2CCN(c3cccc(C)c3)CC2)cc1 [3/28] | 7000 | 269
COc1ccc(Cl)cc1N1CCN(C(=O)c2cc(C)nn2-c2ccccc2F)CC1 [3/88] | 6000 | 60.5
Cc1ccnc(N2CCN(C(=O)c3cc(C)nn3-c3ccccc3)CC2)c1 [Example E31, (5-Methyl-2-phenyl-2H-pyrazol-3-yl)[4-(4-methylpyrid-2-yl)piperazin-1-yl]methanone] | 1500 | 20.8
Cc1cc(C(=O)N2CCN(c3cccc(Cl)c3Cl)CC2)n(-c2ccc(F)cc2)n1 [3/119] | 3100 | 562
Cc1cc(C(=O)N2CCN(c3nccs3)CC2)n(-c2ccccc2)n1 [Example E115] | < 25000 | 3240
CNc1cccc(N2CCN(C(=O)c3cc(C)nn3-c3ccccc3)CC2)c1 [Example E34, [4-(3-Methylaminophenyl)piperazin-1-yl](5-methyl-2-phenyl-2H-pyrazol-3-yl)-methanone] | 800 | 14
Cc1ccc(-n2nc(C)cc2C(=O)N2CCN(c3cccc(Cl)c3Cl)CC2)cc1 [3/132] | 20000 | 3100
CSc1ccccc1N1CCN(C(=O)c2cc(C)nn2-c2cccc(Cl)c2)CC1 [3/26] | 1500 | 90
Cc1cc(C(=O)N2CCN(c3ccc(C)c(C)c3)CC2)n(-c2ccccc2F)n1 [3/86] | 12500 | 385
Cc1cc(C(=O)N2CCN(c3cccc(O)c3)CC2)n(-c2ccccc2)n1 [Example E13, [4-(3-Hydroxyphenyl)piperazin-1-yl](5-methyl-2-phenyl-2H-pyrazol-3-yl)-methanone] | 1000 | 14.2
Cc1cc(C(=O)N2CCN(c3cccc(NC(=O)CCO)c3)CC2)n(-c2ccccc2)n1 [Example E128, 3-Hydroxy-N-{3-[4-(5-methyl-2-phenyl-2H-pyrazole-3-carbonyl)piperazin-1-yl]-phenyl}propionamide] | 3000 | 120
Cc1cc(C(=O)N2CCN(c3ccc(F)cc3)CC2)n(-c2ccccc2)n1 [3/41] | 6500 | 294
COc1ccc(-n2nc(C)cc2C(=O)N2CCN(c3cccc(Cl)c3Cl)CC2)cc1 [3/106] | 7000 | 985
COc1cc(OC)cc(N2CCN(C(=O)c3cc(-c4ccoc4)nn3-c3ccccc3)CC2)c1 [Example E90, [4-(3,5-Dimethoxyphenyl)piperazin-1-yl][5-(furan-3-yl)-2-phenyl-2H-pyrazol-3-yl]methanone] | 1730 | 18.8
Cc1cccc(N2CCN(C(=O)c3cc(C)nn3-c3ccccc3)CC2)c1 [3/11] | 3000 | 36
